Reference: patent publication US8022206B2 (OSI Pharmaceuticals, LLC, priority 2008, dated 2011)

Key:
MET (human) = MET (human) (Homo sapiens, UniProt P08581); experiment: MET (human) AlphaScreen kinase assay, Km of ATP; type: biochemical; conditions: AlphaScreen, Km of ATP; read-out: Met biochemical IC50
Procedure, shortened: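 Human MET at lot-optimised concentration in 50 mM Tris pH 7.4 buffer with 1 mM DTT, compound at 1% DMSO final; enzyme starts the reaction, 60 min at RT.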

RON (human) = RON (human) (Homo sapiens, UniProt Q04912); experiment: RON (human) AlphaScreen kinase assay, Km of ATP; type: biochemical; conditions: AlphaScreen, Km of ATP; read-out: RON biochemical IC50
Procedure, shortened: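 Detection used PT66 AlphaScreen beads added in Tris pH 7.5/NaCl/EDTA/BSA buffer, read after 1 h incubation. Vehicle-only DMSO wells served as controls.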

MET (human), sequence (P08581 25-1390): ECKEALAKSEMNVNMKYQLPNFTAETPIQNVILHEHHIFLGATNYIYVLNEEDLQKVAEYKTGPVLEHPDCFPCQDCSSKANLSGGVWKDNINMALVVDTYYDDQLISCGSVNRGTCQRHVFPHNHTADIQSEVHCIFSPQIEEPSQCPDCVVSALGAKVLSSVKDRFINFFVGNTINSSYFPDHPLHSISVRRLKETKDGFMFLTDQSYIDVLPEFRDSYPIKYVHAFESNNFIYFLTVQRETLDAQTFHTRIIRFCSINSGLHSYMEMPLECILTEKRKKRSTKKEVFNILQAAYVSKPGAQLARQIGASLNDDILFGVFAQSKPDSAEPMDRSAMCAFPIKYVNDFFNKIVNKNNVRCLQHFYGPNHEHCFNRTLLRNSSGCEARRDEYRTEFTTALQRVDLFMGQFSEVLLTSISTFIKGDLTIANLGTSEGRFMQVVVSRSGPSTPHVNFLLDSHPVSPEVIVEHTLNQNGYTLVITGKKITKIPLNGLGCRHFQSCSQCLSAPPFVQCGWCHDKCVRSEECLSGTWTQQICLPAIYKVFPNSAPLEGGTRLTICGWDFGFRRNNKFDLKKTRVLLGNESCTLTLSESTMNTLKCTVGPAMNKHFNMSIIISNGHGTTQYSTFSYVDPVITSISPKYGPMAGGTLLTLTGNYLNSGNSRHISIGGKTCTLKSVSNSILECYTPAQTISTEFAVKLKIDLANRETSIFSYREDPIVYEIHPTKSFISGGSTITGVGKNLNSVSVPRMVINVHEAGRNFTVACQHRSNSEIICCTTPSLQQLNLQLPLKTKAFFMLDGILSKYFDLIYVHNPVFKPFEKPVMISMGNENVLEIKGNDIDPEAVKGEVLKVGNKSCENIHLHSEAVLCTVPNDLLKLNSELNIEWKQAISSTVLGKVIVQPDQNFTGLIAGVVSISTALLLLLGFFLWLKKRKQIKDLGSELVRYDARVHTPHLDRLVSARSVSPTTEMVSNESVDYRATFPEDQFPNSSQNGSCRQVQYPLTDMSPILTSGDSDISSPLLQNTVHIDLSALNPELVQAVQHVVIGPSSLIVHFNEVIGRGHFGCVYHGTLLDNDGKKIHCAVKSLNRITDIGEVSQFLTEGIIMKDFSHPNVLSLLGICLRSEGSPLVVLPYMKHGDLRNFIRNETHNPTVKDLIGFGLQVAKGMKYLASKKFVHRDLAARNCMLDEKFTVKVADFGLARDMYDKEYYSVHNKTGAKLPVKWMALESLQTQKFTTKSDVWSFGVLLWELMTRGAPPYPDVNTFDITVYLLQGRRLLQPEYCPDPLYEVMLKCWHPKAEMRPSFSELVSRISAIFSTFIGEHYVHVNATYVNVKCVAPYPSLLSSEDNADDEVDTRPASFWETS
RON (human), sequence (Q04912 25-1400): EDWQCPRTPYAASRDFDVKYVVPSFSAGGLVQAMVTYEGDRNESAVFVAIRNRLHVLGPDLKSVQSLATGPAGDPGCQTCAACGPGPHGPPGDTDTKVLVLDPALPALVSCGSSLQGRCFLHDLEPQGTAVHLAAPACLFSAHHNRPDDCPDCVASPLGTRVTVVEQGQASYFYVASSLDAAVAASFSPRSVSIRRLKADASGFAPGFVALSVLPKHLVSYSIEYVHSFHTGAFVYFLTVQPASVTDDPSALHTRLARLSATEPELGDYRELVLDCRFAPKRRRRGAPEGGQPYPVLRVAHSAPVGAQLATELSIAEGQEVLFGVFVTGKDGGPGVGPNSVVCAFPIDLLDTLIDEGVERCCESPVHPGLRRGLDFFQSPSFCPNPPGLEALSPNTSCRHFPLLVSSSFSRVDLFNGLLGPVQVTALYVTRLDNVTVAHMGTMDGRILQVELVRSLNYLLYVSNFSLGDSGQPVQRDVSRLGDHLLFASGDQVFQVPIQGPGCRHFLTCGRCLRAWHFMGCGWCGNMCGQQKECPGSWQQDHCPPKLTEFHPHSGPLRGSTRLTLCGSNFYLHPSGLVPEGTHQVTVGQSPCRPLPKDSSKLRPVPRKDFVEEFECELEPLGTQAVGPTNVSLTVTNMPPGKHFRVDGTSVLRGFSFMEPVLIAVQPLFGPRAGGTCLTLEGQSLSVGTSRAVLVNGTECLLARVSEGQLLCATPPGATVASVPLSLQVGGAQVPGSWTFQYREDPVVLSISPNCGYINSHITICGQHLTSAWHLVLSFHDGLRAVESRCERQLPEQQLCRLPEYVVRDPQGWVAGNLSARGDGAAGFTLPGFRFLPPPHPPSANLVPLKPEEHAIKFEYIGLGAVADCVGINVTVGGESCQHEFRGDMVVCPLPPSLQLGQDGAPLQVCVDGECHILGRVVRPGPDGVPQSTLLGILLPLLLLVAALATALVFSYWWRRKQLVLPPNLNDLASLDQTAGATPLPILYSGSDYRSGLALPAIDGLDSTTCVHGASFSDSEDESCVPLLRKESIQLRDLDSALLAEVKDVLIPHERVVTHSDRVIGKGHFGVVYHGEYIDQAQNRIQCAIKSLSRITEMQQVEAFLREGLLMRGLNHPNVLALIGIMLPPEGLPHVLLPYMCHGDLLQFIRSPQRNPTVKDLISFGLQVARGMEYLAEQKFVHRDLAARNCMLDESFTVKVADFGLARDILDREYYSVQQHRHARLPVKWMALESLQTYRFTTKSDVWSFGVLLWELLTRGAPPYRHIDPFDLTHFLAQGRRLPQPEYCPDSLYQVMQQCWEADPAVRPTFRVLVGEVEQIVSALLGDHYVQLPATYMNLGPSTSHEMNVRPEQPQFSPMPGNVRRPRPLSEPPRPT

SMILES	IC50 (MET (human)) [nM]	IC50 (RON (human)) [nM]
COc1cc(Cl)cc(Cl)c1C(C)Oc1c(N)ncc2c(-c3cnn(C4CCNCC4)c3)coc12 (centres unmarked) [Example 360, 7-[1-(2,4-Dichloro-6-methoxyphenyl)ethoxy]-3-(1-piperidin-4-yl-1H-pyrazol-4-yl)furo[3,2-c]pyridin-6-ylamine]	< 500	500 to 5000
CC(Oc1c(N)ncc2c(-c3cnn(C4CCNCC4)c3)coc12)c1c(Cl)cccc1Br (centres unmarked) [Example 361, 7-[1-(2-Bromo-6-chlorophenyl)ethoxy]-3-(1-piperidin-4-yl-1H-pyrazol-4-yl)furo[3,2-c]pyridin-6-ylamine]	< 500	< 500
Cc1ccnc(C)c1C(C)Oc1c(N)ncc2c(-c3cnn(C4CCNCC4)c3)coc12 (centres unmarked) [Example 362, 7-[1-(2,4-Dimethylpyridin-3-yl)ethoxy]-3-(1-piperidin-4-yl-1H-pyrazol-4-yl)furo[3,2-c]pyridin-6-ylamine]	< 500	500 to 5000
C=C(C)CC(Oc1c(N)ncc2c(-c3cnn(C4CCNCC4)c3)coc12)c1c(Cl)cccc1Cl (centres unmarked) [Example 363, 7-[1-(2,6-Dichlorophenyl)-3-methylbut-3-enyloxy]-3-(1-piperidin-4-yl-1H-pyrazol-4-yl)furo[3,2-c]pyridin-6-ylamine]	500 to 5000	500 to 5000
CC(Oc1c(N)ncc2c(-c3cnn(C4CCNCC4)c3)coc12)c1c(Cl)cccc1C(F)(F)F (centres unmarked) [Example 365, 7-[1-(2-Chloro-6-trifluoromethylphenyl)ethoxy]-3-(1-piperidin-4-yl-1H-pyrazol-4-yl)furo[3,2-c]pyridin-6-ylamine]	< 500	500 to 5000
CC(C)CC(Oc1c(N)ncc2c(-c3cnn(C4CCNCC4)c3)coc12)c1c(Cl)ccc(F)c1Cl (centres unmarked) [Example 366, 7-[1-(2,6-Dichloro-3-fluorophenyl)-3-methylbutoxy]-3-(1-piperidin-4-yl-1H-pyrazol-4-yl)furo[3,2-c]pyridin-6-ylamine]	500 to 5000	500 to 5000
Nc1ncc2c(-c3cnn(C4CCNCC4)c3)coc2c1OC(c1c(F)ccc(F)c1Cl)C1CC1 (centres unmarked) [Example 367, 7-[(2-Chloro-3,6-difluorophenyl)cyclopropylmethoxy]-3-(1-piperidin-4-yl-1H-pyrazol-4-yl)furo[3,2-c]pyridin-6-ylamine]	< 500	< 500
Nc1ncc2c(-c3cnn(C4CCNCC4)c3)coc2c1OC(CCc1ccccc1)c1c(Cl)ccc(F)c1Cl (centres unmarked) [Example 368, 7-[1-(2,6-Dichloro-3-fluorophenyl)-3-phenylpropoxy]-3-(1-piperidin-4-yl-1H-pyrazol-4-yl)furo[3,2-c]pyridin-6-ylamine]	500 to 5000	500 to 5000
CC(Oc1c(N)ncc2c(-c3cnn(C4CCNCC4)c3)coc12)c1c(Cl)ccc2ccccc12 (centres unmarked) [Example 369, 7-[1-(2-Chloronaphthalen-1-yl)ethoxy]-3-(1-piperidin-4-yl-1H-pyrazol-4-yl)furo[3,2-c]pyridin-6-ylamine]	500 to 5000	500 to 5000
CC(Cc1ccc(Cl)cc1)Oc1c(N)ncc2c(-c3cnn(C4CCNCC4)c3)coc12 (centres unmarked) [Example 370, 7-[2-(4-Chlorophenyl)-1-methylethoxy]-3-(1-piperidin-4-yl-1H-pyrazol-4-yl)furo[3,2-c]pyridin-6-ylamine]	< 500	500 to 5000
CC(Cc1c(Cl)cccc1Br)Oc1c(N)ncc2c(-c3cnn(C4CCNCC4)c3)coc12 (centres unmarked) [Example 371, 7-[2-(2-Bromo-6-chlorophenyl)-1-methylethoxy]-3-(1-piperidin-4-yl-1H-pyrazol-4-yl)furo[3,2-c]pyridin-6-ylamine]	< 500	500 to 5000
CC(Oc1c(N)ncc2c(-c3cnn(C4CCNCC4)c3)coc12)c1c(F)cc(Cl)cc1Cl (centres unmarked) [Example 372, 7-[1-(2,4-Dichloro-6-fluorophenyl)ethoxy]-3-(1-piperidin-4-yl-1H-pyrazol-4-yl)furo[3,2-c]pyridin-6-ylamine]	< 500	500 to 5000
CC(/C=C/c1c(Cl)ccc(F)c1Cl)Oc1c(N)ncc2c(-c3cnn(C4CCNCC4)c3)coc12 (centres unmarked) [Example 373, 7-[(E)-3-(2,6-Dichloro-3-fluorophenyl)-1-methylallyloxy]-3-(1-piperidin-4-yl-1H-pyrazol-4-yl)furo[3,2-c]pyridin-6-ylamine]	< 500	500 to 5000
CC(Oc1c(N)ncc2c(-c3cnn(C4CCNCC4)c3)coc12)c1ccccc1F (centres unmarked) [Example 374, 7-[1-(2-Fluorophenyl)ethoxy]-3-(1-piperidin-4-yl-1H-pyrazol-4-yl)furo[3,2-c]pyridin-6-ylamine]	500 to 5000	500 to 5000
Cc1cccc(Cl)c1C(C)Oc1c(N)ncc2c(-c3cnn(C4CCNCC4)c3)coc12 (centres unmarked) [Example 375, 7-[1-(2-Chloro-6-methylphenyl)ethoxy]-3-(1-piperidin-4-yl-1H-pyrazol-4-yl)furo[3,2-c]pyridin-6-ylamine]	< 500	500 to 5000
CC(Oc1c(N)ncc2c(-c3cnn(C4CCNCC4)c3)coc12)c1ccc(F)cc1 (centres unmarked) [Example 376, 7-[1-(4-Fluorophenyl)ethoxy]-3-(1-piperidin-4-yl-1H-pyrazol-4-yl)furo[3,2-c]pyridin-6-ylamine]	500 to 5000	500 to 5000

SMILES	IC50 (MET (human)) [nM]	IC50 (RON (human)) [nM]
CC(Oc1c(N)ncc2c(-c3cnn(C4CCNCC4)c3)coc12)c1ccc(Cl)cc1 (centres unmarked) [Example 377, 7-[1-(4-Chlorophenyl)ethoxy]-3-(1-piperidin-4-yl-1H-pyrazol-4-yl)furo[3,2-c]pyridin-6-ylamine]	500 to 5000	500 to 5000
CC(Oc1c(N)ncc2c(-c3cnn(C4CCNCC4)c3)coc12)c1ccc(Cl)cc1F (centres unmarked) [Example 378, 7-[1-(4-Chloro-2-fluorophenyl)ethoxy]-3-(1-piperidin-4-yl-1H-pyrazol-4-yl)furo[3,2-c]pyridin-6-ylamine]	< 500	500 to 5000
CC(Oc1c(N)ncc2c(-c3cnn(C4CCNCC4)c3)coc12)c1c(F)ccc(F)c1Cl (centres unmarked) [Example 379, 7-[1-(2-Chloro-3,6-difluorophenyl)ethoxy]-3-(1-piperidin-4-yl-1H-pyrazol-4-yl)furo[3,2-c]pyridin-6-ylamine]	< 500	< 500
Cc1c(F)cccc1C(C)Oc1c(N)ncc2c(-c3cnn(C4CCNCC4)c3)coc12 (centres unmarked) [Example 380, 7-[1-(3-Fluoro-2-methylphenyl)ethoxy]-3-(1-piperidin-4-yl-1H-pyrazol-4-yl)furo[3,2-c]pyridin-6-ylamine]	< 500	500 to 5000
CC(Oc1c(N)ncc2c(-c3cnn(C4CCNCC4)c3)coc12)c1ccc(Cl)c(F)c1 (centres unmarked) [Example 381, 7-[1-(4-Chloro-3-fluorophenyl)ethoxy]-3-(1-piperidin-4-yl-1H-pyrazol-4-yl)furo[3,2-c]pyridin-6-ylamine]	< 500	< 500
CC(Oc1c(N)ncc2c(-c3cnn(C4CCNCC4)c3)coc12)c1ccc(Cl)cc1Cl (centres unmarked) [Example 382, 7-[1-(2,4-Dichlorophenyl)ethoxy]-3-(1-piperidin-4-yl-1H-pyrazol-4-yl)furo[3,2-c]pyridin-6-ylamine]	< 500	500 to 5000
CC(Oc1c(N)ncc2c(-c3cnn(C4CCNCC4)c3)coc12)c1c(F)cccc1F (centres unmarked) [Example 383, 7-[1-(2,6-Difluorophenyl)ethoxy]-3-(1-piperidin-4-yl-1H-pyrazol-4-yl)furo[3,2-c]pyridin-6-ylamine]	< 500	500 to 5000
CC(Oc1c(N)ncc2c(-c3cnn(C4CCNCC4)c3)coc12)c1cc(F)cc(F)c1 (centres unmarked) [Example 384, 7-[1-(3,5-Difluorophenyl)ethoxy]-3-(1-piperidin-4-yl-1H-pyrazol-4-yl)furo[3,2-c]pyridin-6-ylamine]	500 to 5000	500 to 5000
CC(Oc1c(N)ncc2c(-c3cnn(C4CCNCC4)c3)coc12)c1cccc(Cl)c1 (centres unmarked) [Example 385, 7-[1-(3-Chlorophenyl)ethoxy]-3-(1-piperidin-4-yl-1H-pyrazol-4-yl)furo[3,2-c]pyridin-6-ylamine]	< 500	500 to 5000
CC(Oc1c(N)ncc2c(-c3cnn(C4CCNCC4)c3)coc12)c1ccccc1 (centres unmarked) [Example 386, 7-(1-Phenylethoxy)-3-(1-piperidin-4-yl-1H-pyrazol-4-yl)furo[3,2-c]pyridin-6-ylamine]	500 to 5000	500 to 5000
CC(Oc1c(N)ncc2c(-c3cnn(C4CCNCC4)c3)coc12)c1cccc(Br)c1 (centres unmarked) [Example 387, 7-[1-(3-Bromophenyl)ethoxy]-3-(1-piperidin-4-yl-1H-pyrazol-4-yl)furo[3,2-c]pyridin-6-ylamine]	< 500	500 to 5000
CC(Oc1c(N)ncc2c(-c3cnn(C4CCNCC4)c3)coc12)c1ccc(Br)cc1 (centres unmarked) [Example 388, 7-[1-(4-Bromophenyl)ethoxy]-3-(1-piperidin-4-yl-1H-pyrazol-4-yl)furo[3,2-c]pyridin-6-ylamine]	< 500	500 to 5000
Nc1ncc2c(-c3cnn(C4CCNCC4)c3)coc2c1OC1CCCc2cccc(Cl)c21 (centres unmarked) [Example 389, 7-(8-Chloro-1,2,3,4-tetrahydronaphthalen-1-yloxy)-3-(1-piperidin-4-yl-1H-pyrazol-4-yl)furo[3,2-c]pyridin-6-ylamine]	500 to 5000	500 to 5000
Nc1ncc2c(-c3cnn(C4CCNCC4)c3)coc2c1OC1CCCc2c(F)cccc21 (centres unmarked) [Example 390, 7-(5-Fluoro-1,2,3,4-tetrahydronaphthalen-1-yloxy)-3-(1-piperidin-4-yl-1H-pyrazol-4-yl)furo[3,2-c]pyridin-6-ylamine]	< 500	< 500
Nc1ncc2c(-c3cnn(C4CCNCC4)c3)coc2c1O[C@@H](c1ccccc1)C(F)(F)F [Example 391, 3-(1-Piperidin-4-yl-1H-pyrazol-4-yl)-7-((S)-2,2,2-trifluoro-1-phenylethoxy)furo[3,2-c]pyridin-6-ylamine]	< 500	500 to 5000
